In PubChem BioAssay AID192 (DTP/NCI, 2004):
Several values for one entry are separate records, joined by “and”; a condition that tells them apart may be missing. Identical values can stand only once. Inconclusive results and toxic doses are left out.

System: BDF1 mice, B16 melanoma ip, median survival T/C
Assay: NCI In Vivo Anticancer Drug Screen. Data for tumor model B16 Melanoma (intraperitoneal) in B6D2F1 (BDF1) mice
Settings: endpoint: median survival time, higher = longer survival
Method in brief: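 Vehicle-treated animals serve as the reference (C); treated animals (T) are scored for survival or tumor size after tumor transplantation.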

[1] = dose: 1.56 mg/kg/injection, schedule: Q01DX009 (ip), vehicle: saline
[2] = dose: 3.12 mg/kg/injection, schedule: Q01DX009 (ip), vehicle: saline
[3] = dose: 6.25 mg/kg/injection, schedule: Q01DX009 (ip), vehicle: saline
[4] = dose: 12.5 mg/kg/injection, schedule: Q01DX009 (ip), vehicle: saline
[5] = dose: 25.0 mg/kg/injection, schedule: Q01DX009 (ip), vehicle: saline
[6] = dose: 50.0 mg/kg/injection, schedule: Q01DX009 (ip), vehicle: saline
[7] = dose: 25.0 mg/kg/injection, schedule: Q04DX003 (ip), vehicle: Klucel (hydroxypropylcellulose) (HPC)
[8] = dose: 50.0 mg/kg/injection, schedule: Q04DX003 (ip), vehicle: Klucel (hydroxypropylcellulose) (HPC)
[9] = dose: 200.0 mg/kg/injection, schedule: Q04DX003 (ip), vehicle: Klucel (hydroxypropylcellulose) (HPC)
[10] = dose: 400.0 mg/kg/injection, schedule: Q04DX003 (ip), vehicle: Klucel (hydroxypropylcellulose) (HPC)
[11] = dose: 6.25 mg/kg/injection, schedule: Q01DX009 (ip), vehicle: saline with Tween-80
[12] = dose: 12.5 mg/kg/injection, schedule: Q01DX009 (ip), vehicle: saline with Tween-80
[13] = dose: 25.0 mg/kg/injection, schedule: Q01DX009 (ip), vehicle: saline with Tween-80
[14] = dose: 50.0 mg/kg/injection, schedule: Q01DX009 (ip), vehicle: saline with Tween-80
[15] = dose: 100.0 mg/kg/injection, schedule: Q01DX009 (ip), vehicle: saline with Tween-80
[16] = dose: 200.0 mg/kg/injection, schedule: Q01DX009 (ip), vehicle: saline with Tween-80
[17] = dose: 100.0 mg/kg/injection, schedule: Q01DX009 (ip), vehicle: Klucel (hydroxypropylcellulose) (HPC)
[18] = dose: 200.0 mg/kg/injection, schedule: Q01DX009 (ip), vehicle: Klucel (hydroxypropylcellulose) (HPC)
[19] = dose: 400.0 mg/kg/injection, schedule: Q01DX009 (ip), vehicle: Klucel (hydroxypropylcellulose) (HPC)
[20] = dose: 100.0 mg/kg/injection, schedule: Q01DX009 (ip), vehicle: saline
[21] = dose: 100.0 mg/kg/injection, schedule: Q04DX003 (ip), vehicle: Klucel (hydroxypropylcellulose) (HPC)
[22] = dose: 12.5 mg/kg/injection, schedule: Q01DX009 (ip), vehicle: Klucel (hydroxypropylcellulose) (HPC)
[23] = dose: 25.0 mg/kg/injection, schedule: Q01DX009 (ip), vehicle: Klucel (hydroxypropylcellulose) (HPC)
[24] = dose: 50.0 mg/kg/injection, schedule: Q01DX009 (ip), vehicle: Klucel (hydroxypropylcellulose) (HPC)

In the case of `CN(C)CCC=C1c2ccccc2C=Cc2ccccc21`, the T/C (dose: 0.39 mg/kg/injection, schedule: Q01DX009 (ip), vehicle: saline) was 96 % of control, the T/C (dose: 0.78 mg/kg/injection, schedule: Q01DX009 (ip), vehicle: saline) was 102 % of control and the T/C [1] was 98 % of control and 97 % of control. For the same compound, the T/C [2] was 96 % of control and 100 % of control, the T/C [3] was 86 % of control and 123 % of control and 93 % of control and the T/C [4] was 111 % of control. The T/C [5] was 118 % of control and 90 % of control and the T/C [6] was 101 % of control.

For `COc1cccc2c1C(=O)c1c(O)c3c(c(O)c1C2=O)C[C@@](O)(/C(C)=N/NC(=O)c1cccc([N+](=O)[O-])c1)C[C@@H]3OC1CC(N)C(O)C(C)O1` (stereo partly specified), the T/C (dose: 2.0 mg/kg/injection, schedule: Q01DX001 (ip), vehicle: water) was 153 % of control, the T/C (dose: 4.0 mg/kg/injection, schedule: Q01DX001 (ip), vehicle: water) was 158 % of control and 164 % of control and the T/C (dose: 8.0 mg/kg/injection, schedule: Q01DX001 (ip), vehicle: water) was 168 % of control and 178 % of control. For the same compound, the T/C (dose: 16.0 mg/kg/injection, schedule: Q01DX001 (ip), vehicle: water) was 164 % of control and 184 % of control and the T/C (dose: 32.0 mg/kg/injection, schedule: Q01DX001 (ip), vehicle: water) was 95 % of control.

`CS(=O)(=O)c1nnc(-c2ccccc2)s1` was tested, and the T/C (dose: 100.0 mg/kg/injection, schedule: Q01DX009 (ip), vehicle: carboxymethylcellulose (CMC)) was 111 % of control and the T/C (dose: 200.0 mg/kg/injection, schedule: Q01DX009 (ip), vehicle: carboxymethylcellulose (CMC)) was 102 % of control.

`CC(C)(CO)C(O)C(=O)NNCc1ccccc1` (stereo unspecified) was tested, and the T/C [7] was 102 % of control, the T/C (dose: 25.0 mg/kg/injection, schedule: Q04DX003 (ip), vehicle: saline) was 95 % of control and the T/C [8] was 90 % of control. For the same compound, the T/C (dose: 50.0 mg/kg/injection, schedule: Q04DX003 (ip), vehicle: saline) was 99 % of control, the T/C (dose: 100.0 mg/kg/injection, schedule: Q04DX003 (ip), vehicle: saline) was 100 % of control and the T/C [9] was 92 % of control. The T/C (dose: 200.0 mg/kg/injection, schedule: Q04DX003 (ip), vehicle: saline) was 100 % of control, the T/C [10] was 95 % of control and the T/C (dose: 400.0 mg/kg/injection, schedule: Q04DX003 (ip), vehicle: saline) was 91 % of control.

With `CN=S(=O)(OCCCCCOS(=O)(=NC)c1ccc(C)cc1)c1ccc(C)cc1` (stereo unspecified) the T/C [11] was 101 % of control, the T/C [12] was 103 % of control and the T/C [13] was 99 % of control. For the same compound, the T/C [14] was 102 % of control, the T/C [15] was 101 % of control and the T/C [16] was 106 % of control.

`CCN(C(=O)Nc1ccccc1)c1ccccc1C` was tested, and the T/C [11] was 100 % of control, the T/C [12] was 88 % of control and the T/C [13] was 94 % of control.

`Cc1ccc(NC(=O)c2cccc(C(=O)Nc3ccc(C)c(Cl)c3)c2)cc1Cl` was tested, and the T/C [17] was 97 % of control, the T/C [18] was 105 % of control and the T/C [19] was 97 % of control.

In the case of `Nc1n[nH]c(N)n1`, the T/C [6] was 99 % of control and 100 % of control, the T/C [17] was 100 % of control (2×) and 108 % of control and the T/C (dose: 100.0 mg/kg/injection, schedule: Q01DX009 (ip), vehicle: saline sonified) was 90 % of control. The T/C [15] was 95 % of control and 97 % of control and 120 % of control, the T/C [18] was 94 % of control and 102 % of control (2×) and the T/C (dose: 200.0 mg/kg/injection, schedule: Q01DX009 (ip), vehicle: saline sonified) was 97 % of control and 100 % of control. The T/C [16] was 100 % of control and 107 % of control, the T/C [19] was 92 % of control and 108 % of control and 110 % of control and the T/C (dose: 400.0 mg/kg/injection, schedule: Q01DX009 (ip), vehicle: saline sonified) was 95 % of control and 97 % of control. The T/C (dose: 800.0 mg/kg/injection, schedule: Q01DX009 (ip), vehicle: Klucel (hydroxypropylcellulose) (HPC)) was 86 % of control and 107 % of control and 111 % of control, the T/C (dose: 800.0 mg/kg/injection, schedule: Q01DX009 (ip), vehicle: saline sonified) was 92 % of control and 100 % of control and the T/C (dose: 1600.0 mg/kg/injection, schedule: Q01DX009 (ip), vehicle: saline with Tween-80) was 93 % of control. The T/C (dose: 3200.0 mg/kg/injection, schedule: Q01DX009 (ip), vehicle: saline with Tween-80) was 97 % of control.

In the case of `Cc1cc(Cl)ccc1NC(=O)COc1ccc(Cl)cc1`, the T/C (dose: 3.13 mg/kg/injection, schedule: Q01DX009 (ip), vehicle: saline with Tween-80) was 104 % of control, the T/C [11] was 98 % of control and the T/C [12] was 88 % of control and 95 % of control. For the same compound, the T/C [13] was 93 % of control and the T/C [14] was 91 % of control.

With `C[N+](C)(C)c1ncnc2c1ncn2C1CCCO1` (stereo unspecified) the T/C [3] was 111 % of control, the T/C [4] was 105 % of control and the T/C [5] was 108 % of control. The T/C [6] was 111 % of control and the T/C [20] was 117 % of control.

With `COc1cccc(CN(C)CCC(=O)O)c1` the T/C [21] was 104 % of control, the T/C [9] was 102 % of control and the T/C [10] was 101 % of control.

With `CC(=O)[C@H]1CC[C@H]2[C@@H]3C[C@H](F)C4=CC(=O)CC[C@]4(C)[C@@]3(F)[C@@H](O)C[C@]12C` the T/C [22] was 95 % of control, the T/C [23] was 97 % of control and the T/C [24] was 104 % of control. For the same compound, the T/C (dose: 100.0 mg/kg/injection, schedule: Q04DX003 (ip), vehicle: saline with Tween-80) was 102 % of control, the T/C (dose: 200.0 mg/kg/injection, schedule: Q04DX003 (ip), vehicle: saline with Tween-80) was 110 % of control and the T/C (dose: 400.0 mg/kg/injection, schedule: Q04DX003 (ip), vehicle: saline with Tween-80) was 110 % of control.

With `CCc1ccc(C(C)(C)C)cc1` the T/C [7] was 103 % of control, the T/C [8] was 93 % of control and the T/C [21] was 101 % of control. The T/C [9] was 100 % of control.

In the case of `CC(CN1CCN(CCOCCO)CC1)CN1c2ccccc2Sc2ccccc21` (stereo unspecified), the T/C [1] was 108 % of control, the T/C [2] was 97 % of control and the T/C [3] was 102 % of control. The T/C [5] was 100 % of control and 101 % of control.

In the case of `CCOc1ccc(C(C)c2cc3c(cc2OC)OCO3)cc1` (stereo unspecified), the T/C (dose: 12.5 mg/kg/injection, schedule: Q01DX009 (ip), vehicle: distilled water + Tween-80) was 114 % of control and the T/C (dose: 25.0 mg/kg/injection, schedule: Q01DX009 (ip), vehicle: distilled water + Tween-80) was 113 % of control.

For `CC(C)NCC(O)c1ccc(O)c(O)c1` (stereo unspecified), the T/C (dose: 17.5 mg/kg/injection, schedule: Q01DX009 (ip), vehicle: Klucel (hydroxypropylcellulose) (HPC)) was 101 % of control, the T/C (dose: 35.0 mg/kg/injection, schedule: Q01DX009 (ip), vehicle: Klucel (hydroxypropylcellulose) (HPC)) was 99 % of control and the T/C (dose: 70.0 mg/kg/injection, schedule: Q01DX009 (ip), vehicle: Klucel (hydroxypropylcellulose) (HPC)) was 94 % of control.

With `O=S(CCCl)CCCl` the T/C (dose: 1.56 mg/kg/injection, schedule: Q01DX009 (ip), vehicle: Klucel (hydroxypropylcellulose) (HPC)) was 95 % of control and 107 % of control, the T/C (dose: 3.12 mg/kg/injection, schedule: Q01DX009 (ip), vehicle: Klucel (hydroxypropylcellulose) (HPC)) was 94 % of control and 103 % of control and the T/C (dose: 6.25 mg/kg/injection, schedule: Q01DX009 (ip), vehicle: Klucel (hydroxypropylcellulose) (HPC)) was 111 % of control. The T/C [22] was 99 % of control, the T/C [23] was 89 % of control and the T/C [24] was 91 % of control.

With `NC(=O)c1ccccc1NC(=O)COc1ccc(Cl)cc1` the T/C [17] was 106 % of control, the T/C [18] was 106 % of control and the T/C [19] was 100 % of control.

With `O=C(NC(Cc1ccc(O)cc1)C(=O)O)c1ccccc1` (stereo unspecified) the T/C [14] was 105 % of control, the T/C [15] was 100 % of control and the T/C [16] was 89 % of control. The T/C (dose: 400.0 mg/kg/injection, schedule: Q01DX009 (ip), vehicle: saline with Tween-80) was 88 % of control.

In the case of `CCNCC#CCNCC`, the T/C [6] was 107 % of control and the T/C [20] was 94 % of control.

`O=C(COc1ccc(Cl)cc1)Nc1ccc(Cl)cc1` was tested, and the T/C [13] was 90 % of control, the T/C [14] was 92 % of control and the T/C [15] was 92 % of control.

With `CC1(C)OCC(C2CCC3(C)C4=CCC5C(C)(C)C(O)CCC5(C)C4CCC23C)CC(O)C1O` (stereo unspecified) the T/C (dose: 5.0 mg/kg/injection, schedule: Q01DX009 (ip), vehicle: Klucel (hydroxypropylcellulose) (HPC)) was 118 % of control and the T/C (dose: 10.0 mg/kg/injection, schedule: Q01DX009 (ip), vehicle: Klucel (hydroxypropylcellulose) (HPC)) was 102 % of control.
